Results taken from patent US20260098053A1, “COMPOSITIONS AND METHODS FOR TREATING CNS DISORDERS” (SAGE THERAPEUTICS, INC., priority 2019, published 2026).
Like-named read-outs stand apart in the source and are kept apart here.

Molecular target: [35S]-TBPS binding, rat brain cortical membranes
Assay: Steroid inhibition of [35S]-TBPS binding
Settings: in the presence of 5 mM GABA
Protocol: [35S]-t-Butylbicyclophosphorothionate (TBPS) binding assays using rat brain cortical membranes in the presence of 5 mM GABA has been described (Gee et al, J. Pharmacol. Exp. Ther. 1987, 241, 346-353; Hawkinson et al, Mol. Pharmacol. 1994, 46, 977-985; Lewin, A. H et al., Mol. Pharmacol. 1989, 35, 189-194).
Briefly, cortices are rapidly removed following decapitation of carbon dioxide-anesthetized Sprague-Dawley rats (200-250 g). The cortices are homogenized in 10 volumes of ice-cold 0.32 M sucrose using a glass/teflon homogenizer and centrifuged at 1500×g for 10 min at 4° C. The resultant supernatants are centrifuged at 10,000×g for 20 min at 4° C. to obtain the P2 pellets. The P2 pellets are resuspended in 200 mM NaCl/50 mM Na—K phosphate pH 7.4 buffer and centrifuged at 10,000×g for 10 min at 4° C. This washing procedure is repeated twice and the pellets are resuspended in 10 volumes of buffer. Aliquots ([…]) of the membrane suspensions are incubated with 3 nM [^35S]-TBPS and […] aliquots of test drug dissolved in dimethyl sulfoxide (DMSO) (final 0.5%) in the presence of 5 mM GABA. The incubation is brought to a final volume of 1.0 mL with buffer. Nonspecific binding is determined in the presence of […] and ranged from 15 to 25%. Following a 90 min incubation at room temp, the assays are terminated by filtration through glass fiber filters (Schleicher and Schuell No. 32) using a cell harvester (Brandel) and rinsed three times with ice-cold buffer. Filter bound radioactivity is measured by liquid scintillation spectrometry. Non-linear curve fitting of the overall data for each drug averaged for each concentration is done using Prism (GraphPad). […] The concentration of test compound producing 50% inhibition (IC50) of specific binding and the maximal extent of inhibition (Imax) are determined for the individual experiments with the same model used for the overall data and then the means±SEM.s of the individual experiments are calculated.
Various compounds are or can be screened to determine their potential as modulators of [^35S]-TBPS binding in vitro. These assays are or can be performed in accordance with the above

[1] = Table 4, 3 nM [35S]-TBPS, read-out: TBPS IC50
[2] = Table 6, 3 nM [35S]-TBPS, read-out: IC50

Row | SMILES | IC50 [1] [nM] | also measured
1 | CC[C@]12CC[C@H]3[C@@H](CC[C@@H]4C[C@](C)(O)CCC[C@@]43C)[C@@H]1CC[C@@H]2C(=O)Cn1cc(C#N)cn1 [Example 30, 1-(2-((1S,3aS,3bR,5aR,7R,10aS,10bS,12aS)-12a-ethyl-7-hydroxy-7,10a-dimethyloctadecahydrocyclohepta[a]cyclopenta[f]naphthalen-1-yl)-2-oxoethyl)-1H-pyrazole-4-carbonitrile] | < 100 | 
2 | CC[C@]1(O)CC[C@H]2CC[C@@H]3[C@H](CC[C@]4(C)[C@@H](C(C)=O)CCC[C@@H]34)[C@H]2CC1 [Example 49, 1-((1S,4aS,4bR,6aR,9S,11aS,11bR,13aS)-9-ethyl-9-hydroxy-13a-methyloctadecahydro-1H-cyclohepta[a]phenanthren-1-yl)ethanone] | > 1000 | 
3 | COC[C@@]1(O)CCC[C@@]2(C)[C@@H](CC[C@@H]3[C@@H]2CC[C@]2(C)[C@@H](C(=O)Cn4cc(C#N)cn4)CCC[C@@H]32)C1 [Example 43] | < 100 | 
4 | CC[C@]12CC[C@H]3[C@@H](CC[C@@H]4CC[C@](C)(O)CC[C@@H]43)[C@@H]1CC[C@@H]2C(=O)Cn1cc(C#N)cn1 [Example 33] | 100 to 1000 | 
5 | CC[C@]1(O)CC[C@H]2CC[C@@H]3[C@H](CC[C@]4(C)[C@H](C(C)=O)CCC[C@@H]34)[C@H]2CC1 [Example 47, 1-((1R,4aS,4bR,6aR,9S,11aS,11bR,13aS)-9-ethyl-9-hydroxy-13a-methyloctadecahydro-1H-cyclohepta[a]phenanthren-1-yl)ethanone] | > 1000 | 
6 | CC[C@]12CC[C@H]3[C@@H](CC[C@@H]4C[C@](C)(O)CC[C@@H]43)[C@@H]1CCC[C@@H]2C(=O)Cn1cc(C#N)cn1 [Example 28, 1-(2-((1S,4aS,4bR,6aR,8R,10aS,10bR,12aS)-12a-ethyl-8-hydroxy-8-methyloctadecahydrochrysen-1-yl)-2-oxoethyl)-1H-pyrazole-4-carbonitrile] | < 100 | 
7 | CC[C@]12CC[C@H]3[C@@H](CC[C@@H]4C[C@](C)(O)CC[C@@]43C3CC3)[C@@H]1CC[C@@H]2C(C)=O [Example 88, 1-((3R,5R,8S,9S,10R,13S,14S,17S)-10-cyclopropyl-13-ethyl-3-hydroxy-3-methylhexadecahydro-1H-cyclopenta[a]phenanthren-17-yl)ethanone] |  | IC50 [2]: < 100 nM
8 | CC(=O)[C@H]1CCC[C@H]2[C@@H]3CC[C@@H]4C[C@](C)(O)CCC[C@@H]4[C@H]3CC[C@]12C [Example 9, 1-((1S,4aS,4bR,6aR,8R,11aS,11bR,13aS)-8-hydroxy-8,13a-dimethyloctadecahydro-1H-cyclohepta[a]phenanthren-1-yl)ethan-1-one] | < 100 | 
9 | CC[C@]12CC[C@H]3[C@@H](CC[C@@H]4C[C@](C)(O)CC[C@@]43C3CC3)[C@@H]1CC[C@@H]2C(=O)Cn1nnnc1C [Example 92, 1-((3R,5R,8S,9S,10R,13S,14S,17S)-10-cyclopropyl-13-ethyl-3-hydroxy-3-methylhexadecahydro-1H-cyclopenta[a]phenanthren-17-yl)-2-(5-methyl-1H-tetrazol-1-yl)ethanone] |  | IC50 [2]: < 100 nM
10 | Cc1nnn(CC(=O)[C@H]2CCCC[C@H]3[C@@H]4CC[C@@H]5C[C@](C)(O)CCC[C@]5(C)[C@H]4CC[C@]23C)n1 [Example 62, 1-((1S,5aS,5bR,7aR,9R,12aS,12bS,14aS)-9-hydroxy-9,12a,14a-trimethylicosahydrodicyclohepta[a,f]naphthalen-1-yl)-2-(5-methyl-2H-tetrazol-2-yl)ethanone] | < 100 | 
11 | C[C@]1(O)CC[C@@H]2CC[C@@H]3[C@H](CC[C@]4(C)[C@H](C(=O)Cn5cc(C#N)cn5)CCC[C@@H]34)[C@@]2(C)CC1 [Example 45, 1-(2-((1R,4aS,4bR,6aS,9S,11aS,11bS,13aS)-9-hydroxy-9,11a,13a-trimethyloctadecahydro-1H-cyclohepta[a]phenanthren-1-yl)-2-oxoethyl)-1H-pyrazole-4-carbonitrile] | > 1000 | 
12 | C[C@@]1(O)CC[C@H]2[C@H](CC[C@H]3[C@@H]4CC[C@H](C(=O)Cn5cc(C#N)cn5)[C@@H]4CC[C@@H]32)C1 [Example 84, 1-(2-((3R,5R,8R,9R,10S,13R,14S,17S)-3-hydroxy-3-methylhexadecahydro-1H-cyclopenta[a]phenanthren-17-yl)-2-oxoethyl)-1H-pyrazole-4-carbonitrile] |  | IC50 (Table 5, 3 nM [35S]-TBPS, read-out: TBPS IC50): 100 to 1000 nM
13 | CC[C@]12CC[C@H]3[C@@H](CC[C@@H]4C[C@](C)(O)CC[C@@]43C3CC3)[C@@H]1CC[C@@H]2C(=O)Cn1ccc(C#N)n1 [Example 90, 1-(2-((3R,5R,8S,9S,10R,13S,14S,17S)-10-cyclopropyl-13-ethyl-3-hydroxy-3-methylhexadecahydro-1H-cyclopenta[a]phenanthren-17-yl)-2-oxoethyl)-1H-pyrazole-3-carbonitrile] |  | IC50 [2]: < 100 nM
14 | CC[C@@]1(O)CCC[C@@]2(C)[C@@H](CC[C@@H]3[C@@H]2CC[C@]2(C)[C@@H](C(=O)Cn4cc(C#N)cn4)CCC[C@@H]32)C1 [Example 42, 1-(2-((1S,4aS,4bR,6aS,8R,11aS,11bS,13aS)-8-ethyl-8-hydroxy-11a,13a-dimethyloctadecahydro-1H-cyclohepta[a]phenanthren-1-yl)-2-oxoethyl)-1H-pyrazole-4-carbonitrile] | 100 to 1000 | 
15 | C[C@]1(O)CC[C@@H]2CC[C@@H]3[C@H](CC[C@]4(C)[C@@H](C(=O)CCn5cc(C#N)cn5)CCC[C@@H]34)[C@@]2(C)CC1 [Example 54, 1-(3-((1S,4aS,4bR,6aS,9S,11aS,11bS,13aS)-9-hydroxy-9,11a,13a-trimethyloctadecahydro-1H-cyclohepta[a]phenanthren-1-yl)-3-oxopropyl)-1H-pyrazole-4-carbonitrile] | 100 to 1000 | 
16 | C[C@@]1(O)CCC[C@@]2(C)[C@@H](CC[C@@H]3[C@@H]2CC[C@]2(C)[C@@H](C(=O)CCn4cc(C#N)cn4)CCC[C@@H]32)C1 [Example 41, 1-(3-((1S,4aS,4bR,6aS,8R,11aS,11bS,13aS)-8-hydroxy-8,11a,13a-trimethyloctadecahydro-1H-cyclohepta[a]phenanthren-1-yl)-3-oxopropyl)-1H-pyrazole-4-carbonitrile] | < 100 | 
17 | CC[C@@]1(O)CCC[C@H]2[C@H](CC[C@@H]3[C@@H]2CC[C@]2(C)[C@@H](C(=O)Cn4cc(C#N)cn4)CCC[C@@H]32)C1 [Example 14, 1-(2-((1S,4aS,4bR,6aR,8R,11aS,11bR,13aS)-8-ethyl-8-hydroxy-13a-methyloctadecahydro-1H-cyclohepta[a]phenanthren-1-yl)-2-oxoethyl)-1H-pyrazole-4-carbonitrile] | 100 to 1000 | 
18 | C[C@]1(O)CC[C@H]2CC[C@@H]3[C@H](CC[C@]4(C)[C@@H](C(=O)CCn5cc(C#N)cn5)CCC[C@@H]34)[C@H]2CC1 [Example 51, 1-(3-((1S,4aS,4bR,6aR,9S,11aS,11bR,13aS)-9-hydroxy-9,13a-dimethyloctadecahydro-1H-cyclohepta[a]phenanthren-1-yl)-3-oxopropyl)-1H-pyrazole-4-carbonitrile] | 100 to 1000 | 
